Experiments:
A2780 = test: Cytotoxicity against human A2780 cells after 5 days by MTT assay; assay type: functional, cell-based; settings: A2780, 120 h
[1] = Cytotoxicity against thymidine kinase-deficient mouse LMTK cells after 5 days by MTT assay; assay type: cell-based; settings: L-M(TK-), 120 h

O=c1[nH]c(=O)n([C@H]2C[C@H](O)[C@@H](CO)O2)cc1F [FLOXURIDINE]
IC50 (A2780): 0.026 µM | IC50 [1]: 4.5 µM

COC(=O)[C@H](C)N[P@@]1(=O)OC[C@H]2O[C@@H](n3cc(F)c(=O)[nH]c3=O)C[C@@H]2O1
IC50 (A2780): 1.4 µM | IC50 [1]: 12.7 µM

COC(=O)[C@H](C)NP(=O)(OC[C@H]1O[C@@H](n2cc(F)c(=O)[nH]c2=O)C[C@@H]1O)Oc1ccccc1 (stereo not given in full)
IC50 (A2780): 2.4 µM | IC50 [1]: 45.6 µM

COC(=O)CNP1(=O)OC[C@H]2O[C@@H](n3cc(F)c(=O)[nH]c3=O)C[C@@H]2O1 (stereo not given in full)
IC50 (A2780): 0.55 µM | IC50 [1]: 141 µM

COC(=O)[C@H](C)N[P@]1(=O)OC[C@H]2O[C@@H](n3cc(F)c(=O)[nH]c3=O)C[C@@H]2O1
IC50 (A2780): 1.4 µM | IC50 [1]: 60.7 µM

Reference: ChEMBL document CHEMBL2046371, “Synthesis and study of cyclic pronucleotides of 5-fluoro-2'-deoxyuridine” (Bioorg Med Chem Lett, 2012)
